Measured values as given in US20220364135A1, “MODIFIED PROPIONIBACTERIUM AND METHODS OF USE” (priority 2019, published 2022).

Tests used:
[1] = test system: cbiMCbl riboswitch; assay: FbFP reporter assay, WT cbiMCbl riboswitch in FbFP-ΔcobA strain; format: cell-based, P. UF1; details: for FbFP expression with VB12 analogues: various concentrations of analogues
Text: (§1) To generate the cbiMCbl riboswitch-FbFP translational fusion constructs, the 5′ UTR (FIG. 6C) containing the promoter of cobA operon, wild-type cbiMCbl riboswitch and ribosome-binding site was PCR amplified from P. UF1 genome (NCBI Genome database, CP018002) with primers S-cobA-1 and S-cobA 22. The codon-optimized FbFP gene (32) was synthesized (GenScript, Piscataway, N.J.) and PCR amplified using primers S-cobA 33 and S-cobA 4. Overlapping PCR was used to ligate the 5′ UTR and FbFP gene using Primers cobA-1 and S-cobA-4, which was subsequently cloned into plasmid pYMZ between BamHI and XbaI sites. Mutations of the cbiMCbl riboswitch were generated by site-directed mutagenesis or overlapping PCR (Table S1). cbiM, cbiN, cbiO, cobA, and tetR reporters were constructed using similar strategies. All plasmids were verified via Sanger sequencing (Genewiz, South Plainfield, N.J.) and introduced into P. UF1 or ΔcobA P. UF1 by electroporation.
FbFP reporter assays: To perform FbFP fluorescence intensity measurement, bacteria were cultivated for three days in triplicate, washed, and resuspended with PBS. The excitation and emission wavelengths of FbFP were set at 452 nm and 495 nm on a microplate reader (BioTek, Winooski, Vt.), respectively (48). FbFP intensity at 495 nm was normalized by corresponding OD600 values for each sample. P. UF1 strain with an empty vector was used as the baseline for calculation of fluorescence intensity.

[2] = test system: cobA operon; assay: Western blot of cobA operon gene expression under WT cbiMCbl riboswitch in ΔcobA P. UF1 reporter strains; format: cell-based; details: for cbiM expression with VB12 analogues: various concentrations of analogues
Text: as §1
Western blot: Bacteria were cultivated for three days, and washed three times, followed by lysozyme digestion (10 mg/ml) for 2 hours at 37° C. Cell lysates were separated by 12% SDS-PAGE, transferred to PVDF membranes (Sigma Aldrich, St. Louis, Mo.), and blocked with Odyssey blocking buffer (Li-Cor Biosciences, Lincoln, Nebr.). Subsequently, membranes were incubated with anti-HIS-tag antibody (Thermo Fisher Scientific, Waltham, Mass.), anti-TetR antibody (Takara Bio, Mountain view, CA), anti-CobA serum antibodies, or anti-LspA serum antibodies (Stock in our lab) for 2 h at room temperature in the blocking buffer with 0.02% Tween 20. After washing with TBST (20 mM Tris, 150 mM NaCl and 0.1% Tween 20, pH 7.4), membranes were incubated with IRDye 680RD goat anti-mouse secondary antibody (Li-Cor Biosciences, Lincoln, Nebr.) for 1 hour at room temperature in the blocking buffer with 0.02% Tween 20. After washing with TBS, the proteins were detected using an Odyssey infrared imaging system (Li-Cor Biosciences, Lincoln, Nebr.). LspA was used as an internal control.

[3] = test system: SL1-deleted riboswitch (ΔSL1); assay: FbFP reporter assay, SL1-deleted riboswitch in FbFP-ΔcobA strain; format: cell-based, P. UF1
Text: as §1
FbFP reporter assays: To perform FbFP fluorescence intensity measurement, bacteria were cultivated for three days in triplicate, washed, and resuspended with PBS. The excitation and emission wavelengths of FbFP were set at 452 nm and 495 nm on a microplate reader (BioTek, Winooski, Vt.), respectively (48). […] P. UF1 strain with an empty vector was used as the baseline for calculation of fluorescence intensity.

[4] = test system: SL1-deleted riboswitch (ΔSL1); assay: Western blot of cbiM expression, SL1-deleted riboswitch in CbiM-ΔcobA strain; format: cell-based, P. UF1; details: VB12 0-5000 ng/ml
Text: as §1
Western blot: Bacteria were cultivated for three days, and washed three times, followed by lysozyme digestion (10 mg/ml) for 2 hours at 37° C. […] After washing with TBS, the proteins were detected using an Odyssey infrared imaging system (Li-Cor Biosciences, Lincoln, Nebr.). […]

[5] = test system: 5′ UTR of cobA operon; assay: FbFP and cbiM reporter expression in FbFP-WT and CbiM-WT strains; format: cell-based, P. UF1; details: FbFP-WT and CbiM-WT cultures
Text: as §1
[…] The excitation and emission wavelengths of FbFP were set at 452 nm and 495 nm on a microplate reader (BioTek, Winooski, Vt.), respectively (48). […] P. UF1 strain with an empty vector was used as the baseline for calculation of fluorescence intensity.
[…] After washing with TBS, the proteins were detected using an Odyssey infrared imaging system (Li-Cor Biosciences, Lincoln, Nebr.). […]

[6] = test system: cobA operon; assay: qRT-PCR of cobA operon transcription; format: cell-based; details: P. UF1 incubated with various concentrations of VB12
Text: Quantitative RT-PCR: Total RNA was extracted from various bacterial cultures using Trizol reagent (Thermo Fisher Scientific, Waltham, Mass.), and the RNA mixtures were further purified using the Aurum Total RNA Mini Kit (Bio-Rad, Hercules, Calif.). The cDNA was synthesized from total RNA using iScript Advanced cDNA Synthesis Kit (Bio-Rad, Hercules, Calif.). Quantitative real-time was accomplished with SsoAdvanced Universal SYBR Green Supermix (Bio-Rad, Hercules, Calif.) on a CFX96 real-time PCR system (Bio-Rad, Hercules, Calif.) using primers listed in Table 2 above. Results were normalized to those obtained from groL2 gene.

Molecule: C/C1=C2/[N-][C@H]([C@H](CC(N)=O)[C@@]2(C)CCC(=O)NC[C@@H](C)OP(=O)([O-])O[C@H]2[C@@H](O)[C@@H](n3cnc4cc(C)c(C)cc43)O[C@@H]2CO)[C@]2(C)N=C(/C(C)=C3N=C(/C=C4N=C1[C@@H](CCC(N)=O)C\4(C)C)[C@@H](CCC(N)=O)[C@]\3(C)CC(N)=O)[C@@H](CCC(N)=O)[C@]2(C)CC(N)=O.[CH2-][C@H]1O[C@@H](n2cnc3c(N)ncnc32)[C@H](O)[C@@H]1O.[Co] [adenosylcobalamin]
- FbFP expression with VB12 analogues ([1]; FbFP-ΔcobA strain): similarly downregulated
- cbiM expression with VB12 analogues ([2]; CbiM-ΔcobA strain): similarly downregulated

Molecule: C/C1=C2/[N-][C@H]([C@H](CC(N)=O)[C@@]2(C)CCC(=O)NC[C@@H](C)OP(=O)([O-])O[C@H]2[C@@H](O)[C@@H](n3cnc4cc(C)c(C)cc43)O[C@@H]2CO)[C@]2(C)N=C(/C(C)=C3N=C(/C=C4N=C1[C@@H](CCC(N)=O)C\4(C)C)[C@@H](CCC(N)=O)[C@]\3(C)CC(N)=O)[C@@H](CCC(N)=O)[C@]2(C)CC(N)=O.[Co+3].[OH-] [hydroxocobalamin]
- FbFP expression with VB12 analogues ([1]; FbFP-ΔcobA strain): similarly downregulated
- cbiM expression with VB12 analogues ([2]; CbiM-ΔcobA strain): similarly downregulated

Molecule: C/C1=C2/[N-][C@H]([C@H](CC(N)=O)[C@@]2(C)CCC(=O)NC[C@H](C)OP(=O)([O-])O[C@H]2[C@@H](O)[C@@H](n3cnc4cc(C)c(C)cc43)O[C@@H]2CO)[C@]2(C)N=C(/C(C)=C3N=C(/C=C4N=C1[C@@H](CCC(N)=O)C\4(C)C)[C@@H](CCC(N)=O)[C@]\3(C)CC(N)=O)[C@@H](CCC(N)=O)[C@]2(C)CC(N)=O.[CH3-].[Co+3] [methylcobalamin]
- FbFP expression with VB12 analogues ([1]; FbFP-ΔcobA strain): similarly downregulated
- cbiM expression with VB12 analogues ([2]; CbiM-ΔcobA strain): similarly downregulated

Molecule: Vitamin B12 [VB12]
- VB12 concentration completely inhibiting expression of downstream genes by cbiMCbl riboswitch [1]: 750 µM
- VB12 concentration at which expression of FbFP was completely abated ([1]; FbFP-ΔcobA strain, WT riboswitch): 500 ng/mL
- half maximal inhibitory concentration (IC50) of VB12 on FbFP expression ([1]; FbFP-ΔcobA strain, WT riboswitch, VB12 0-2500 ng/ml): 0.0752 µg/mL
- repression of FbFP expression ([1]; WT riboswitch, 250 ng/ml VB12): ~10 fold
- IC50 of VB12 on FbFP expression, SL1-deleted riboswitch ([3]; FbFP-ΔcobA strain, ΔSL1 riboswitch, VB12 0-5000 ng/ml): 12.962 µg/mL
- IC50 with ΔSL1 relative to WT riboswitch ([3]; ΔSL1 vs WT riboswitch): 256 times
- cbiM expression (Western blot, HIS-tag antibody) ([2]; CbiM-ΔcobA strain, VB12 0-2500 ng/ml): dose-dependent inhibition
- expression of cbiN and cbiO (Western blot) ([2]; CbiN-ΔcobA and CbiO-ΔcobA cultures, VB12 0-25000 ng/ml): dampened
- cobA expression (Western blot) ([2]; CobA-ΔcobA strain, VB12 0-25000 ng/ml): dose-dependent inhibition but to a lesser extent
- cbiM expression, ΔSL1 compared to WT riboswitch [4]: no repression
- expression of FbFP and cbiM [5]: significantly decreased
- mRNA levels of cbiM, cbiN, cbiO and cbiQ [6]: significantly repressed

Molecule: cyanocobalamin
- FbFP expression with VB12 analogues ([1]; FbFP-ΔcobA strain): similarly downregulated
- cbiM expression with VB12 analogues ([2]; CbiM-ΔcobA strain): similarly downregulated
